We go through five molecules from patent US20090311723A1, “FLUORESCENCE-BASED ASSAY FOR MONOACYLGLYCEROL LIPASE COMPATIBLE WITH INHIBITOR SCREENING” (WYETH, priority 2007, published 2009).

Series [1] in a line: Stability of 7-HCA in assay buffer over time. Format: physicochemical. As to conditions: 25° C. As to the method:
The stability of 7-HCA in assay buffer was monitored over time and found to be stable for at least 5 hours at 25° C.

The target in series [2] is T1, MGL (Rattus norvegicus, UniProt Q8R431).
T1 sequence (Q8R431 1-303): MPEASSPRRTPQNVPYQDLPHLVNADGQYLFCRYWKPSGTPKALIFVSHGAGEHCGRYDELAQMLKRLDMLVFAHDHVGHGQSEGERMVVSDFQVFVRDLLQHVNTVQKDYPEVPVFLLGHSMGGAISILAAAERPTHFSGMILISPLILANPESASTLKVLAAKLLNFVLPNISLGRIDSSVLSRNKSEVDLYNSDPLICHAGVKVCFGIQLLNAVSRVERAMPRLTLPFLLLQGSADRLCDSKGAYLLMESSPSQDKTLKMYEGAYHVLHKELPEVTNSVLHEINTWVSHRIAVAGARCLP
As to conditions: Makara 2005; later demonstrated to be false positive (impurity); read-out: IC50 of MGL previously reported; cited from earlier work.

Series [3] concerns the target T2, recombinant human MGL protein (Homo sapiens, UniProt Q99685).
T2 construct: a mixture of forward and reverse primers spanning the entire coding region; made in house; host or cells: E. coli BL21
T2 sequence (Q99685 1-303): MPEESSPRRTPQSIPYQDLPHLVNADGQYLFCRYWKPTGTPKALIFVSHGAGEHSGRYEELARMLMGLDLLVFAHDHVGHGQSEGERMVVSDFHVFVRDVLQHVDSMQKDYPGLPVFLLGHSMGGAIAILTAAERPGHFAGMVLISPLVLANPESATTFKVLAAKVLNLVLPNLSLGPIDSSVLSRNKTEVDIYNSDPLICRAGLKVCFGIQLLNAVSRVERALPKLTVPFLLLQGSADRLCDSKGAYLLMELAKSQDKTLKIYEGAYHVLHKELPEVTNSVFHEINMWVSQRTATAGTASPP
The experiment in a line: Fluorescence assay of MGL inhibition with 7-HCA as substrate. Type of series: biochemical. As to conditions: for IC50: 3 ng MGL, 10 μM 7-HCA, pH 8, 25° C., 60 minutes. The procedure:
For measuring MGL inhibition by compounds, 3 ng protein per assay were incubated with indicated concentrations of the compound in the presence of 10 mM 7-HCA for 60 minutes. The reactions were stopped and processed as described above. Results are presented as the mean±S.E. of triplicate measurements from at least two independent experiments. The IC50 values were calculated by […]™ Prism 3.02 program using a sigmoidal dose-response equation.
Inhibition of MGL activity by URB602 was studied by treating 3 ng of MGL protein with increasing concentrations of URB602 with 7-HCA as substrate at pH 8, and 25° C., for 60 minutes in a total volume of 50 μl.
According to FIG. 7, the assay was carried out by incubating 3 ng of MGL protein with 10 μM 7-HCA and indicated concentrations of compounds in 50 mM HEPES, pH 8, 1 mM EDTA and 10% DMSO, at 25° C. for 60 minutes. The percent inhibition of MGL activity was plotted against compound concentration, and the IC50 was calculated by fitting the curve to a non-linear regression equation using […]™ Prism 3.02. Each data point represents mean±SD (n=3) from at least 2 individual experiments.

For series [4], the target named is T1, MGL. More on the design: from tissue; host or cells: rat brain, periaqueductal grey, in vivo (reported from Hohmann 2005). As to conditions: micro-injection into periaqueductal grey, blocked by CB1 antagonist SR141716; cited from earlier work.
Substrate in series [5]: CCCCC/C=C\C/C=C\C/C=C\C/C=C\CCCC(=O)Oc1ccc2ccc(=O)oc2c1
The series can be described thus: Rate of hydrolysis of fluorogenic substrates by MGL (Michaelis-Menten kinetics, 7-HC fluorescence). Type of series: biochemical, human. As to conditions: other: 3 ng/well MGL, 10% DMSO, pH 8.0, room temperature, read after 10 minutes, ND = not detectable activity. As to the method: (§1) The assay was performed in a 384-well black plate (NUNC) in a total volume of 50 μl. A typical assay consisted of 3 ng of MGL protein, 10 mM 7-HCA substrate (prepared in DMSO) in assay buffer consisting of 50 mM HEPES, pH 8, 1 mM EDTA, and […] of inhibitor solution or DMSO (10% final concentration). The components were mixed and incubated on a shaker for 10-60 min and the plate was read in a fluorescence plate reader (SPECTRAMAX™-Gemini; Ex: 355 nm; Em: 460 nm). The reaction was carried out at 25° C., and the fluorescence was monitored in the kinetic mode. The fluorescence units were converted to amount of product based on the standard curve generated with 7-HC. The data were analyzed using GRAPHPAD™ Prism Version 3.02. The observed rate constants (apparent KM) were calculated using GRAPHPAD™ Prism 3.02 based on a Michaelis-Menten (one site binding hyperbola) equation Y=BmaxX/[Kd+X].
(§2) Table 3, shown below, depicts rates of hydrolysis for MGL with representative fluorogenic substrates. Rates were measured at reactions containing 3 ng/well MGL protein, a series of concentrations of above compounds in 10% DMSO, pH 8.0, and room temperature. The 7-HC fluorescence (λex=355 nm, λem=460 nm) was read after 10-minutes. The data were analyzed and the Vmax and Km calculated using the Michaelis-Menten equation. *ND means “not detectable activity.”
(§3) The kinetic constants, KM (apparent) and Vmax were calculated by determining the MGL activity with increasing substrate concentrations. 3 ng MGL protein were incubated with increasing 7-HCA concentrations, at pH 8, 25° C., for 10 minutes in a 384-well black plate, in a total volume of 50 μl. Specific activity of MGL was plotted against the substrate concentration and the data was fit to a non-linear regression equation (FIG. 6). […] The Lineweaver-Burk plot is shown as an insert within FIG. 6.
(§4) According to FIG. 6, a 50 μl MGL reaction, containing 3 ng/well MGL protein, the indicated concentrations of 7-HCA and 10% DMSO, was performed at room temperature. The 7-HC fluorescence (λex=355 nm, λem=460 nm) was read after 10-minutes. The data were analyzed and the Vmax and KM calculated using the Michaelis-Menten equation. A Lineweaver-Burk plot of 7-HCA hydrolysis by substrate is also shown.

Substrate in series [6]: C=CCCCCC(=O)Oc1ccc2ccc(=O)oc2c1
Described as above. Type of series: biochemical, human. As to conditions: other: 3 ng/well MGL, 10% DMSO, pH 8.0, room temperature, read after 10 minutes, ND = not detectable activity. As to the method: as §1, §2, §3, §4

Take `CCCCC/C=C\C/C=C\C/C=C\C/C=C\CCCC(=O)Oc1ccc2ccc(=O)oc2c1` [7-HCA, 7-Hydroxycoumarinyl-arachidonate]: the “stability in assay buffer” value in series [1] was “at least 5 hours”.
Turning to `Cc1ccc(Nc2nc3ccc(C)cc3c(=O)o2)cc1` [URB754], the half-inhibitory concentration (IC50) in series [2] was 50 nM. Further, the “inhibition of MGL activity (negative control)” value in series [3] (concentrations up to 100 μM) is given as “failing to inhibit MGL activity”.
Turning to `CCCCC/C=C\C/C=C\C/C=C\C/C=C\CCCCN1C(=O)C=CC1=O` [N-Arachidonyl Maleimide (NAM), N-Arachidonyl Maleimide], the IC50 in series [3] was 155 nM.
With `O=C(Nc1cccc(-c2ccccc2)c1)OC1CCCCC1` [URB602], in series [4], the “effect on stress-induced antinociception” value was “enhanced stress-induced antinociception”. Moreover, the IC50 in series [3] was found to be 3600 nM; in series [3] (listed as URB-602), 3100 nM.

B1: recombinant human MGL protein (Homo sapiens) (protein)
chain: MPEESSPRRTPQSIPYQDLPHLVNADGQYLFCRYWKPTGTPKALIFVSHGAGEHSGRYEELARMLMGLDLLVFAHDHVGHGQSEGERMVVSDFHVFVRDVLQHVDSMQKDYPGLPVFLLGHSMGGAIAILTAAERPGHFAGMVLISPLVLANPESATTFKVLAAKVLNLVLPNLSLGPIDSSVLSRNKTEVDIYNSDPLICRAGLKVCFGIQLLNAVSRVERALPKLTVPFLLLQGSADRLCDSKGAYLLMELAKSQDKTLKIYEGAYHVLHKELPEVTNSVFHEINMWVSQRTATAGTASPP
notes: a mixture of forward and reverse primers spanning the entire coding region; made in house; host or cells: E. coli BL21
Turning to B1, in series [5], the Km was determined as 9.8 µM and the Vmax stood at 1.7 µmol/min/mg. Moreover, in series [6], the Km was found to be 9.3 µM and the Vmax was 1.3 µmol/min/mg.
